Source: patent US10428134B2, “Immunoglobulins and uses thereof” (JANSSEN PHARMACEUTICA NV, priority 2016, dated 2019)

Columns and labels:
CALCR = biological target: T1, CALCR (Homo sapiens, UniProt P30988); assay: class B GPCR panel cAMP assay, CALCR; assay type: cell-based
T1 construct: host or cells: cells expressing CALCR (unnamed vendor)
T1 sequence (P30988 25-474): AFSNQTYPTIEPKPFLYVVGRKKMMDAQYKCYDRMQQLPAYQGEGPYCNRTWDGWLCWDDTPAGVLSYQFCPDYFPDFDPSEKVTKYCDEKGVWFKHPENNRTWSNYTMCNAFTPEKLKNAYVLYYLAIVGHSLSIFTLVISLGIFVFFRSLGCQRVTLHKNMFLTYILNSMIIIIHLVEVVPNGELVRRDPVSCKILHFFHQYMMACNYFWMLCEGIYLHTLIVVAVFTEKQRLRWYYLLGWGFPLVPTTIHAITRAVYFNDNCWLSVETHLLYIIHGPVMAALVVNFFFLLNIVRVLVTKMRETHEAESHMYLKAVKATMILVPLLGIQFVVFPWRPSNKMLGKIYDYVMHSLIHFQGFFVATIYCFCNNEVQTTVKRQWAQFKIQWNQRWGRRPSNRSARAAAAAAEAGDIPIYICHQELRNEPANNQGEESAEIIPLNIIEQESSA
Experimental: (§1) The assays were performed according to the vendor's standard operating procedures with a positive control included for each receptor tested.

PTHR1 = biological target: T2, PTHR1 (Homo sapiens, UniProt Q03431); assay: class B GPCR panel cAMP assay, PTHR1; assay type: cell-based; details: read-out: Max response
T2 construct: host or cells: cells expressing PTHR1 (unnamed vendor)
T2 sequence (Q03431 27-593): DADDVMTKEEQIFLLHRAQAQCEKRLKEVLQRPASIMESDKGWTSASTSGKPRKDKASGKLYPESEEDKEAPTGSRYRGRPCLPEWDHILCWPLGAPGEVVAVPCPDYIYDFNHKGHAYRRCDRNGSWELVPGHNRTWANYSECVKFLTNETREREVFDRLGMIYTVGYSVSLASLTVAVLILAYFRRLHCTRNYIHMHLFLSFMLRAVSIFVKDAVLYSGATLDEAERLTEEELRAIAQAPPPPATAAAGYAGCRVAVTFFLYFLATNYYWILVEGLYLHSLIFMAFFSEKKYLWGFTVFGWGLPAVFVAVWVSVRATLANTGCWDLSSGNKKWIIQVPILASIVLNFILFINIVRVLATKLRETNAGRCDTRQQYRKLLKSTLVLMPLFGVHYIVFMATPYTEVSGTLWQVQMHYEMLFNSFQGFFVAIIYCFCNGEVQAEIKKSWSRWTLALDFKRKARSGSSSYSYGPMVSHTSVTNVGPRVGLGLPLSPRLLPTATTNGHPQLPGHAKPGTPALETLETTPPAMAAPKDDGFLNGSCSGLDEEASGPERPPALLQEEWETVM
Experimental: as §1

Compound | Curve Bottom (CALCR; CALCR cAMP assay) | Curve Top (CALCR; CALCR cAMP assay) | Hill (CALCR; CALCR cAMP assay) | Emax (CALCR; read-out: Max response) [%] | Emax (PTHR1) [%]
CC(C)C[C@H](NC(=O)[C@H](CCCCN)NC(=O)CNC(=O)[C@H](CC(C)C)NC(=O)[C@@H](NC(=O)[C@@H]1CSSC[C@H](N)C(=O)N[C@@H](CO)C(=O)N[C@@H](CC(N)=O)C(=O)N[C@@H](CC(C)C)C(=O)N[C@@H](CO)C(=O)N[C@@H]([C@@H](C)O)C(=O)N1)C(C)C)C(=O)N[C@@H](CO)C(=O)N[C@@H](CCC(N)=O)C(=O)N[C@@H](CCC(=O)O)C(=O)N[C@@H](CC(C)C)C(=O)N[C@@H](Cc1c[nH]cn1)C(=O)N[C@@H](CCCCN)C(=O)N[C@@H](CC(C)C)C(=O)N[C@@H](CCC(N)=O)C(=O)N[C@H](C(=O)N[C@@H](Cc1ccc(O)cc1)C(=O)N1CCC[C@H]1C(=O)N[C@@H](CCCNC(=N)N)C(=O)N[C@H](C(=O)N[C@@H](CC(N)=O)C(=O)N[C@H](C(=O)NCC(=O)N[C@@H](CO)C(=O)NCC(=O)N[C@H](C(=O)N1CCC[C@H]1C(N)=O)[C@@H](C)O)[C@@H](C)O)[C@@H](C)O)[C@@H](C)O [Calcitonin] | −6.2187 | 105 | 1.5254 | 101 | –
CC[C@H](C)[C@H](NC(=O)[C@H](CCC(=O)O)NC(=O)[C@H](CO)NC(=O)[C@@H](NC(=O)[C@@H](N)CO)C(C)C)C(=O)N[C@@H](CCC(N)=O)C(=O)N[C@@H](CC(C)C)C(=O)N[C@@H](CCSC)C(=O)N[C@@H](Cc1cnc[nH]1)C(=O)N[C@@H](CC(N)=O)C(=O)N[C@@H](CC(C)C)C(=O)NCC(=O)N[C@@H](CCCCN)C(=O)N[C@@H](Cc1cnc[nH]1)C(=O)N[C@@H](CC(C)C)C(=O)N[C@@H](CC(N)=O)C(=O)N[C@@H](CO)C(=O)N[C@@H](CCSC)C(=O)N[C@@H](CCC(=O)O)C(=O)N[C@@H](CCCNC(=N)N)C(=O)N[C@H](C(=O)N[C@@H](CCC(=O)O)C(=O)N[C@@H](Cc1c[nH]c2ccccc12)C(=O)N[C@@H](CC(C)C)C(=O)N[C@@H](CCCNC(=N)N)C(=O)N[C@@H](CCCCN)C(=O)N[C@@H](CCCCN)C(=O)N[C@@H](CC(C)C)C(=O)N[C@@H](CCC(N)=O)C(=O)N[C@@H](CC(=O)O)C(=O)N[C@H](C(=O)N[C@@H](Cc1cnc[nH]1)C(=O)N[C@@H](CC(N)=O)C(=O)N[C@@H](Cc1ccccc1)C(=O)O)C(C)C)C(C)C [PTH(1-34)] | – | – | – | – | 93.6
